Assay results reported in publication PMC10376059, “New NADPH Oxidase 2 Inhibitors Display Potent Activity against Oxidative Stress by Targeting p22^phox-p47^phox Interactions” (Antioxidants, 2023).

How the values were obtained:
[1] = tested on: cardiomyocytes isolated from mdx mice; experiment: NOX2-mediated ROS production (DCF-DA, confocal) in mdx cardiomyocytes; format: cell-based, mouse; details: 20 µM
Description: Cardiomyocytes were isolated from mdx mice (C57BL/10ScSn-DMDmdx/J, stock number 001801M, Jackson Laboratories, Bar Harbor, […], USA). Male mdx mice of 19 months of age were used, which were housed in individual cages with water and food ad libitum. All the procedures were adjusted to the “Guide for the Care and Use of Laboratory Animals” (1996) of the National Institute of Health and were approved by the Institutional Committee for Animal Care and Use of the Universidad de Talca. Mice were pre-medicated with heparin i.p. (200U.) and then sacrificed by cervical dislocation. The heart was rapidly removed, cannulated through the aorta, and retrogradely perfused in a steady flow (2 mL/min) at 37 °C. The hearts were initially perfused for 10 min with a Ca^2+-free bicarbonate buffer solution containing (in mM) 120 NaCl; 5.4 KCl; 1.2 MgSO4; 1.2 NaH2PO4; 5.6 glucose; 20 NaHCO3; 10 BDM, and 5 taurine, bubbled with a 95% O2–5% CO2 mixture. Enzyme digestion was performed with collagenase type II (1 mg/mL; Worthington Biochemical Corp., Lakewood, NJ, USA) and protease type XIV (0.1 mg/mL; Sigma-Aldrich) as previously reported. Isolated cardiomyocytes were transferred to 1.5 mL Eppendorf tubes and preincubated with the heteroaryl acrylonitrile compounds.
Cardiomyocytes isolated from mdx mice were transferred to Eppendorf tubes to be incubated with 1 μM of the indole heteroaryl-acrylonitrile derivatives for 30 min, protected from light, at room temperature. VAS2870 (20 μM) was used as a positive control for NOX2 inhibition. 2′,7′-dichlorofluorescein diacetate (DCF-DA) (10 μM) was then added and incubated for 15 min. Subsequently, it was allowed to sediment by gravity to remove the supernatant, and the pellets obtained were in a phosphate saline solution (PBS). 200 μL of the cell suspension were placed on pre-treated polylysine slides (Thermo Fischer, USA) and fixed with 2% paraformaldehyde (Sigma-Aldrich®, St. Louis, MO, USA) for 10 min at 4 °C. […] From the acquired images, the fluorescence intensity was quantified at 495 nm, and the data were reported as fluorescence intensity per pixel.

[2] = target: T1, p47^phox (Homo sapiens, UniProt P14598); experiment: p47phox translocation from cytosol to membrane (Western blot) in PMA-stimulated HL-60 differentiated cells; format: cell-based; details: PMA 0.8 µM, 20 µM
T1 construct: we evaluated p47^phox translocation from the cytosol to the membrane in HL-60 differentiated cells; endogenous in cells; host or cells: neutrophil-differentiated HL-60 cells treated with PMA; membrane and cytosolic fractions obtained by cryo-fracture
T1 sequence (P14598 1-390): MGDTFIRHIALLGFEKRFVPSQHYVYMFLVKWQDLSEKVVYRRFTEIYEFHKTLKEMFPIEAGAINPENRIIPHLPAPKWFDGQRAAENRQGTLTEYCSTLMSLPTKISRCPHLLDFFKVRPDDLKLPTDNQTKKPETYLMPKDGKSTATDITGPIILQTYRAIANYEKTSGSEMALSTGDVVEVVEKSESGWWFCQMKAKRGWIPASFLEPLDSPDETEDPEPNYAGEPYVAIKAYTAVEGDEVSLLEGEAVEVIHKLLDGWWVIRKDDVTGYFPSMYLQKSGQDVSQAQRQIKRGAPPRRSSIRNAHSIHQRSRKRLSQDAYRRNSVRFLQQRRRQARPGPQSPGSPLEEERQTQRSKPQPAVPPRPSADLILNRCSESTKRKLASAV
Protocol: Neutrophil-differentiated HL-60 cells (2 × 10^6 cells/mL) were incubated at 37 °C in a humid atmosphere with 5% CO2 and 50 μM of the different acrylonitrile compounds, then PMA 0.8 μM was added and incubated for 1 h to induce the activation of the enzyme NADPH oxidase. As a positive inhibition control, VAS2870 (20 μM) was used. Another two controls were performed: one with cells activated by PMA in the presence of DMSO, and the other (NA, non-activated) with cells in the absence of PMA and the acrylonitrile compounds. In 15 mL conical tubes, 5 mL of cell suspension from each treatment and control condition was transferred at 2 × 10^6 cells/mL and centrifuged at 1000 rpm at 4 °C for 10 min. The supernatant was then discarded, and each pellet was re-suspended in 2 mL of a 4% PBS solution with 2 mM EGTA and 0.25 mM PMSF frozen at −80 °C for 10 min. Then each pellet was thawed on ice. After this, the cell suspension was passed through a glass tissue homogenizer (Deltalab®, I.C.T, S.L, La Rioja, Spain) 20 times. The freezing-thawing and homogenization processes were repeated three times. Finally, the homogenate was centrifuged at 15,000 rpm at 4 °C for 15 min. The supernatant (cytosolic fraction) was removed from the pellet (membranes were prepared). A fraction was removed for the determination of total proteins, and the remainder was stored at −80 °C for further analysis. […]

[3] = tested on: isolated rat hearts; experiment: Ischemia-reperfusion in isolated rat heart (Langendorff); details: 100 µM, TTC staining

SMILES	NOX2-derived ROS, DCF (in words) [1]	translocation of p47phox to the membrane (in words) [2]	infarcted area (in words) [3]
c1ccc(Cn2nnc3c(Sc4nc5ccccc5o4)ncnc32)cc1 [VAS2870, 7-(1,3-Benzoxazol-2-ylsulfanyl)-3-benzyl-3H-[1,2,3]triazolo [4,5-d]pyrimidine, reference compound]	reduced	significantly reduced the translocation of p47^phox to the membrane	
COc1cc(C(C)=O)ccc1O [apocynin]			reduced the infarcted area
